Laboratory results from US9321753B2, “Inhibitors of Flaviviridae viruses” (Gilead Sciences, Inc., priority 2010, dated 2016).

Tested on: HCV replicon
Assay: HCV replicon assay in human hepatoma Huh-7 cell line (luciferase readout)
Type: cell-based
Settings: 2 μM; Huh-7 HCV replicon cells, 3 days incubation; inhibition of viral replication
Experimental: The anti-HCV activity of the compounds of this invention was tested in a human hepatoma Huh-7 cell line harboring a HCV replicon. The assay comprised the following steps:
Serial dilution was performed in 100% DMSO in a 384-well plate. A solution containing a compound at 225-fold concentration of the starting final serial dilution concentration was prepared in 100% DMSO and 15 uL added to the pre-specified wells in column 3 or 13 of a polypropylene 384-well plate. The rest of the 384-well plate was filled with 10 uL 100% DMSO except for columns 23 and 24, where 10 uL of 500 uM a HCV protease inhibitor (ITMN-191) in 100% DMSO was added. The HCV protease inhibitor was used a control of 100% inhibition of HCV replication. The plate was then placed on a Biomek FX Workstation to start the serial dilution. The serial dilution was performed for ten cycles of 3-fold dilution from column 3 to 12 or from column 13 to 22.
To each well of a black polypropylene 384-well plate, 90 μL of cell media containing 1600 suspended Huh-7 HCV replicon cells was added with a Biotek uFlow Workstation. A volume of 0.4 μL of the compound solution was transferred from the serial dilution plate to the cell culture plate on a Biomek FX Workstation. The DMSO concentration in the final assay condition was 0.44%. The plates were incubated for 3 days at 37° C. with 5% CO2 and 85% humidity.
a) Assessment of cytotoxicity: The media in the 384-well cell culture plate was aspirated with a Biotek EL405 plate-washer. A volume of 50 μL of a solution containing 400 nM Calcein AM in 100% PBS was added to each well of the plate with a Biotek uFlow Workstation. The plate was incubated for 30 minutes at room temperature before the fluorescence signal ([…]) was measured with a Perkin Elmer Envision Plate Reader.
b) Assessment of inhibition of viral replication: The calcein-PBS solution in the 384-well cell culture plate was aspirated with a Biotek EL405 plate-washer. A volume of 20 μL of Dual-Glo luciferase buffer (Promega, Dual-Glo Luciferase Assay Reagent, cat. #E298B) was added to each well of the plate with a Biotek uFlow Workstation. The plate was incubated for 10 minutes at room temperature. A volume of 20 μL of a solution containing 1:100 mixture of Dual-Glo Stop & Glo substrate (Promega, Dual-Glo Luciferase Assay Reagent, cat. #E313B) and Dual-Glo Stop & Glo buffer (Promega, Dual-Glo Luciferase Assay Reagent, cat #E314B) was then added to each well of the plate with a Biotek uFlow Workstation. The plate was incubated at room temperature for 10 minutes before the luminescence signal was measured with a Perkin Elmer Envision Plate Reader.
The percent cytotoxicity was determined by calcein AM conversion to fluorescent product. The average fluorescent signal from the DMSO control wells were defined as 100% nontoxic. The individual fluorescent signal from testing compound treated well was divided by the average signal from DMSO control wells and then multiplied by 100% to get the percent viability. The percent anti-HCV replication activity was determined by the luminescence signal from the testing well compared to DMSO controls wells. The background signal was determined by the average luminescence signal from the HCV protease inhibitor treated wells and was subtracted from the signal from the testing wells as well as the DMSO control wells. Following 3-fold serial dilutions, the EC50 and CC50 values were calculated by fitting % inhibition at each concentration to the following equation: % inhibition=100%/[(EC50/[I])^b+1]
Where b is Hill's coefficient. See, for reference, Hill, A. V., The Possible Effects of the Aggregation of the Molecules of Haemoglobin on its Dissociation Curves, J. Physiol. 40: iv-vii. (1910).
% inhibition values at a specific concentration, for example 2 μM, can also be derived from the formula above.

| SMILES | % inhibition at 2 μM [%] |
| --- | --- |
| CC1=CCC(C(=O)N(c2cc(C#CC(C)(C)C)sc2C(=O)O)[C@H]2CC[C@](O)(CO[C@H]3CCOC3)CC2)[C@H](C)C1 (single isomer, unassigned) [Compound 5B, 5-(3,3-dimethyl-but-1-ynyl)-3-{(4,6R-dimethyl-cyclohex-3-enecarbonyl)-[4-hydroxy-4-(tetrahydro-furan-3-yloxymethyl)-cyclohexyl]-amino}-thiophene-2-carboxylic acid] | 99.95 |

Same assay, conditions: Hepatitis C virus, Huh-7, 72 h, 2 μM; Huh-7 HCV replicon cells, 3 days incubation; inhibition of viral replication; read-out: % inhibition at 2 μM

| SMILES | inhibition at 2 µM [%] |
| --- | --- |
| CC1=CCC(C(=O)N(c2cc(C#CC(C)(C)C)sc2C(=O)O)[C@H]2CC[C@](O)(CO[C@H]3CCOC3)CC2)[C@H](C)C1 (single isomer, unassigned) [Compound 5A, 5-(3,3-dimethyl-but-1-ynyl)-3-{(4,6R-dimethyl-cyclohex-3-enecarbonyl)-[4-hydroxy-4-(tetrahydro-furan-3-yloxymethyl)-cyclohexyl]-amino}-thiophene-2-carboxylic acid] | 100 |
| CC(C)(C)C#Cc1cc(N(C(=O)[C@H]2CC[C@H](C)CC2)C2CCC(O)(COc3cccnc3)CC2)c(C(=O)O)s1 (stereo partly shown) [Compound 1, 5-(3,3-Dimethylbut-1-ynyl)-3-(N-(4-hydroxy-4-((pyridin-3-yloxy)methyl)cyclohexyl)-4-methylcyclohexanecarboxamido)thiophene-2-carboxylic acid] | 99.9 |
| CC(C)(C)C#Cc1cc(N(C(=O)[C@H]2CC[C@H](C)CC2)[C@H]2CC[C@](O)(CO[C@@H]3CCOC3)CC2)c(C(=O)O)s1 [Compound 2, 5-(3,3-Dimethyl-but-1-ynyl)-3-[[4-hydroxy-4-(tetrahydrofuran-3R-yloxymethyl)-cyclohexyl]-(4-methyl-cyclohexanecarbonyl)-amino]-thiophene-2-carboxylic acid] | 100 |
| CC(C)(C)C#Cc1cc(N(C(=O)[C@H]2CC[C@H](C)CC2)[C@H]2CC[C@](O)(CO[C@H]3CCOC3)CC2)c(C(=O)O)s1 [Compound 3, 5-(3,3-Dimethyl-but-1-ynyl)-3-[[4-hydroxy-4-(tetrahydrofuran-3S-yloxymethyl)-cyclohexyl]-(4-methyl-cyclohexanecarbonyl)-amino]-thiophene-2-carboxylic acid] | 100 |
| CC(C)(C)C#Cc1cc(N(C(=O)[C@H]2CC[C@H](C)CC2)[C@H]2CC[C@@](O)(CO[C@H]3CCOC3)CC2)c(C(=O)O)s1 [Compound 4] | 99.6 |
| CC1=CCC(C(=O)N(c2cc(C#CC(C)(C)C)sc2C(=O)O)[C@H]2CC[C@](O)(CO[C@H]3CCOC3)CC2)[C@@H](C)C1 (stereo partly drawn) [Compound 6, 5-(3,3-dimethyl-but-1-ynyl)-3-{(4,6S-dimethyl-cyclohex-3-enecarbonyl)-[4-hydroxy-4-(tetrahydro-furan-3(S)-yloxymethyl)-cyclohexyl]-amino}-thiophene-2-carboxylic acid] | 99.9 |
| CC1=CC[C@@H](C(=O)N(c2cc(C#CC(C)(C)C)sc2C(=O)O)[C@H]2CC[C@](O)(CO[C@@H]3CCOC3)CC2)CC1 [Compound 7] | 100 |
| CC1=CC[C@@H](C(=O)N(c2cc(C#CC(C)(C)C)sc2C(=O)O)[C@H]2CC[C@](O)(CO[C@H]3CCOC3)CC2)CC1 [Compound 8] | 99.9 |
| CC1=CC[C@H](C(=O)N(c2cc(C#CC(C)(C)C)sc2C(=O)O)[C@H]2CC[C@](O)(CO[C@H]3CCOC3)CC2)CC1 [Compound 9] | 100 |
| CC1=CC[C@H](C(=O)N(c2cc(C#CC(C)(C)C)sc2C(=O)O)[C@H]2CC[C@](O)(CO[C@@H]3CCOC3)CC2)CC1 [Compound 10] | 100 |
| COC(=O)c1sc(C#CC(C)(C)C)cc1N(C(=O)[C@H]1CC=C(C)C[C@@H]1C)[C@H]1CC[C@](O)(CO[C@H]2CCOC2)CC1 [Compound 17] | 78.8 |
| CC1=CC[C@H](C(=O)N(c2cc(C#CC(C)(C)C)sc2C(=O)O)[C@H]2CC[C@](O)(CO[C@@H]3CCOC3)CC2)[C@@H](C)C1 [Compound 18] | 100 |
| [2H]C([2H])([2H])C(C#Cc1cc(N(C(=O)[C@H]2CC=C(C)CC2)C2CCC(O)(CO[C@H]3CCOC3)CC2)c(C(=O)O)s1)(C([2H])([2H])[2H])C([2H])([2H])[2H] (stereo partly shown) [Compound 24] | 100 |
| CC1=CC[C@H](C(=O)N(c2cc(C#CC(C)(C)CO)sc2C(=O)O)[C@H]2CC[C@](O)(CO[C@H]3CCOC3)CC2)CC1 [Compound 29, 5-(4-hydroxy-3,3-dimethylbut-1-ynyl)-3-((R)-N-((1R,4S)-4-hydroxy-4-(((S)-tetrahydrofuran-3-yloxy)methyl)cyclohexyl)-4-methylcyclohex-3-enecarboxamido)thiophene-2-carboxylic acid] | 100 |

Same assay, conditions: Hepatitis C virus, Huh-7, 72 h, read-out: % inhibition at 2 μM

| SMILES | inhibition at 2 µM [%] |
| --- | --- |
| CC1=CC[C@H](C(=O)N(c2cc(C#CC(C)(C)C)sc2C(=O)O)[C@H]2CC[C@](O)(CO[C@H]3CCOC3)CC2)[C@@H](C)C1 [Compound 16] | 100 |
